We go through five compounds from ChEMBL document CHEMBL1149139, “Azasugar-based MMP/ADAM inhibitors as antipsoriatic agents” (J Med Chem, 2004).

Experiment [1] deals with T1, Disintegrin and metalloproteinase domain-containing protein 17 (Homo sapiens, UniProt P78536). Description: Inhibition of heparin-binding HB-EGF shedding.
For experiment [2], the target named is T1, Disintegrin and metalloproteinase domain-containing protein 17. The experiment is described as follows: Inhibition of human tumor necrosis factor alpha converting enzyme.
A further experiment has as its target T2, Interstitial collagenase (Homo sapiens, UniProt P03956).
T2 sequence (P03956 whole entry): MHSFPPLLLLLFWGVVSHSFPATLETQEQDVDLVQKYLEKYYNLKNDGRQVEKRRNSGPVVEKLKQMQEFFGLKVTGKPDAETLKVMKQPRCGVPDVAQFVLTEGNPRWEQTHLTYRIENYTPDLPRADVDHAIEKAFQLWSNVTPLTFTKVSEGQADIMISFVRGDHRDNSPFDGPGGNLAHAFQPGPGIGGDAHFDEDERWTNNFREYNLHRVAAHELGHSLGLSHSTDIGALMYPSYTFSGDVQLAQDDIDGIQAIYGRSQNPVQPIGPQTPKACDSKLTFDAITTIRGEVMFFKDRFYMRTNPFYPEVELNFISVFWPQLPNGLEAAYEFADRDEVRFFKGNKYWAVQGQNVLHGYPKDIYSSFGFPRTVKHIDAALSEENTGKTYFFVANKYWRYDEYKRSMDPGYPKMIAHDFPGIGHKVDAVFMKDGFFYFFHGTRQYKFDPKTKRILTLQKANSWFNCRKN
Description: Inhibition of human recombinant matrix metalloprotease 1.

The target in the next experiment is Stromelysin-1 (Homo sapiens, UniProt P08254). Description: Inhibition of human recombinant matrix metalloprotease 3.
Experiment [3] deals with Matrix metalloproteinase-9 (Homo sapiens, UniProt P14780). The experiment is described as follows: Inhibition of human recombinant matrix metalloprotease 9.
Matrix metalloproteinase-9, sequence (P14780 whole entry): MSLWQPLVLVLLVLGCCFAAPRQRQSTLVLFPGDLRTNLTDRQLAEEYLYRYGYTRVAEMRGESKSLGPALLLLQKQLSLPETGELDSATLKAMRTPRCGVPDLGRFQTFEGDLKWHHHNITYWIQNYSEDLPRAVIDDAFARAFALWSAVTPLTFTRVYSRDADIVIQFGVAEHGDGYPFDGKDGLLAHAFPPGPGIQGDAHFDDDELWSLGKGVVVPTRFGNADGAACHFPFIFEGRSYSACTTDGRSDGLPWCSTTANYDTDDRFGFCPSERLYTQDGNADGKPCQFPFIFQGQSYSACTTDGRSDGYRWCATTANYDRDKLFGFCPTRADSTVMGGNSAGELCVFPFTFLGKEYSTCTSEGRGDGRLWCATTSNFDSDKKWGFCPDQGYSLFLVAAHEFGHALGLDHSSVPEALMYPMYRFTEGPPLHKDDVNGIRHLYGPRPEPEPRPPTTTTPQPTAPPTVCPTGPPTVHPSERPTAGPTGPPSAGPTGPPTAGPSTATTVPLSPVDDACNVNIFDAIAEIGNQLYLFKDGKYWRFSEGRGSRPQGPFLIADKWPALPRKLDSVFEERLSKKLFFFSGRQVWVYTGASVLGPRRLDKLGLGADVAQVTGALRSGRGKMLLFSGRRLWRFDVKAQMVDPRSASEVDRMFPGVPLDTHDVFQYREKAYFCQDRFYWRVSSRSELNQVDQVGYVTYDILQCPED

T1 sequence (P78536 whole entry, the tested form may be a part): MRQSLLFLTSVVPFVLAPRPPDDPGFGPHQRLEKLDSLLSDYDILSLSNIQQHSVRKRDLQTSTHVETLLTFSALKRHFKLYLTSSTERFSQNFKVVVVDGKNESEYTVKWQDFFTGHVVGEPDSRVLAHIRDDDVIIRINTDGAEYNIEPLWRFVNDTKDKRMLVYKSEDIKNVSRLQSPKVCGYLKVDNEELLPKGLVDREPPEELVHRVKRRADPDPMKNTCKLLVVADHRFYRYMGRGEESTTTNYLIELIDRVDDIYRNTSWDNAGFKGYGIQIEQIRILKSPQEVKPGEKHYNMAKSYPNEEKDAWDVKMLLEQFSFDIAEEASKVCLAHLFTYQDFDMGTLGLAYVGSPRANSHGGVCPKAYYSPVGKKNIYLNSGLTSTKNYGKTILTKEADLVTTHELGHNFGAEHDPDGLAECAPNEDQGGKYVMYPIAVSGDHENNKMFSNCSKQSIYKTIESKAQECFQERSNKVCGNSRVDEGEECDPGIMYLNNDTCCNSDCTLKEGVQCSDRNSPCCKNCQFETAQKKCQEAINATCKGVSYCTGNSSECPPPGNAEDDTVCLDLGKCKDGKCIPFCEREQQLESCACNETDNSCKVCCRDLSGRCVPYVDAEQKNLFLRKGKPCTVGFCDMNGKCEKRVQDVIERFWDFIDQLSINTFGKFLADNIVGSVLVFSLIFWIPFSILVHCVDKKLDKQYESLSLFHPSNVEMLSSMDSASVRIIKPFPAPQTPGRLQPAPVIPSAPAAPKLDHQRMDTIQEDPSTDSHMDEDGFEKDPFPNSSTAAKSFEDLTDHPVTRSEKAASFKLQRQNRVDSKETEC
Stromelysin-1, sequence (P08254 whole entry): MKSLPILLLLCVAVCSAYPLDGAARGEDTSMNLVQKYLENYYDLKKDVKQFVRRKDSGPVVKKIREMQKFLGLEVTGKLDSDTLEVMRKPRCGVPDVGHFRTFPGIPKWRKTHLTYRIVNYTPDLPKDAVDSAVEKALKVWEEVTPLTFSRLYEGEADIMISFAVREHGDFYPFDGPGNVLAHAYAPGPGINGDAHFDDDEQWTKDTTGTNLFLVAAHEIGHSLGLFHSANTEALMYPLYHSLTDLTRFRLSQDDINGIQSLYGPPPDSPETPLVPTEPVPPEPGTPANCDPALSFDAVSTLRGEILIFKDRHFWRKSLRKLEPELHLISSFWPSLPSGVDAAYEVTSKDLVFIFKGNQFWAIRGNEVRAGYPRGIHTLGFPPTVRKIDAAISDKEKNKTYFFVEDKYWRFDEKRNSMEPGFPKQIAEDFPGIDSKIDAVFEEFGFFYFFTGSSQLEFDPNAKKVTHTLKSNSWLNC

In experiment [1], `O=C(NO)[C@H]1[C@@H](O)[C@H](O)[C@H](O)CN1S(=O)(=O)c1ccc(Oc2ccccc2)cc1` displayed a 50% inhibitory concentration (IC50) of 340 nM. Further, the results for the Ki (in experiment [2]; at Interstitial collagenase; on Stromelysin-1) were 6.2 nM, 5.3 nM and 0.35 nM, respectively.

In experiment [1], `COc1ccc(S(=O)(=O)N2C[C@@H](O)[C@@H](O)[C@H](O)[C@@H]2C(=O)NO)cc1` registered a half-inhibitory concentration (IC50) of 450 nM. Moreover, the Ki in experiment [2] came out at 15 nM; on Interstitial collagenase, 26 nM.

On to `O=C(NO)[C@H]1[C@@H](O)[C@H](O)[C@H](O)CN1S(=O)(=O)c1ccc(OCc2ccccc2)cc1`, for which the IC50 in experiment [1] came to 84 nM. Besides, the Ki is 1.7 nM in experiment [2], more than 850 nM on Interstitial collagenase, 2.1 nM at Stromelysin-1 and 7.4 nM in experiment [3].

In experiment [1], `O=C(NO)[C@H]1[C@@H](O)[C@H](O)[C@H](O)CN1S(=O)(=O)c1ccc(-c2ccccc2)cc1` showed an IC50 of 21000 nM. Also, the Ki in experiment [2] stood at 21 nM; on Interstitial collagenase, 162 nM; on Stromelysin-1, 50 nM; in experiment [3] it was 47 nM.

In experiment [1], `O=C(NO)[C@H]1[C@@H](O)[C@H](O)[C@@H](O)CN1S(=O)(=O)c1ccc(Oc2ccccc2)cc1` returned a half-inhibitory concentration (IC50) of 350 nM.
